Assay results reported in patent publication US6897215B1, “Compounds having 5-HT6 receptor antagonist activity” (NPS Allelix Corp., priority 1999, dated 2005).
Read-outs that look alike come from different tables or passages of the source.

Assays:
[1] = molecular target: T1, human 5-HT6 subtype of receptor (Homo sapiens, UniProt P50406); settings: read-out: 5-HT6 receptor affinity (Ki); radioligand 3H-LSD, 60 minute incubation at 37° C.
[2] = tested on: a number of other receptors including other serotonin receptors such as 5-HT1A and 5-HT7; assay: selectivity over other receptors; settings: 5-HT6 versus other receptors incl. 5-HT1A and 5-HT7
human 5-HT6 receptors = molecular target: T2, human 5-HT6 receptors (Homo sapiens, UniProt P50406); assay: functional adenylyl cyclase assay: cAMP accumulation in stably transfected HEK293 cells; format: cell-based; settings: 1 uM serotonin
T2 construct: expressed in transfected cells; host or cells: HEK293 (stably transfected, G418 selection)

[3] = molecular target: T1, human 5-HT6 subtype of receptor; assay: biochemical

T1 sequence (P50406 whole entry): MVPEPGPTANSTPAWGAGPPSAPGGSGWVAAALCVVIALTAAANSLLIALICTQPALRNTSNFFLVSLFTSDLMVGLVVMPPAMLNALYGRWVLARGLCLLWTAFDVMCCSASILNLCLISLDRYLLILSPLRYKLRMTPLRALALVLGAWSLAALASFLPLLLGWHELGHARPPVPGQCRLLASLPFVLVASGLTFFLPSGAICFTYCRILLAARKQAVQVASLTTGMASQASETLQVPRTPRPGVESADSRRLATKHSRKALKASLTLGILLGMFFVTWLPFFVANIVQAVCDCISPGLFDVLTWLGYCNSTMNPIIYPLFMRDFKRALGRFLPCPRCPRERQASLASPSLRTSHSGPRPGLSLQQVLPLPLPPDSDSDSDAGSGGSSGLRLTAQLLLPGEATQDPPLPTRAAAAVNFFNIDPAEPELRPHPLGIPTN
T2 sequence (P50406 whole entry): as above

Row | Ki [1] [nM] | selectivity over other receptors [2] | IC50 (human 5-HT6 receptors) [nM] | antagonist property at the 5-HT6 receptor (human 5-HT6 receptors) | Ki [3] [nM] | Structure (SMILES)
1 | 0.2 | good selectivity | 7.2 | competitive antagonist |  | O=S(=O)(c1cccc2ccccc12)n1ccc2ccc(N3CCN4CCCC4C3)cc21 (stereo not drawn) [Example 4a, 6-[6,5-Bicyclopiperazinyl]-1-[1-naphthylenesulphonyl]indole]
2 |  |  |  |  | 0.7 | O=S(=O)(c1cccc2ccccc12)n1ccc2ccc(C3CCN4CCCC4C3)cc21 (single isomer, unassigned) [Example 5F (13)]
3 | 0.8 |  |  |  |  | O=S(=O)(c1cccc2ccccc12)n1ccc2ccc(C3CCN4CCCC4C3)cc21 [Example 5F (12), 6-[(7-R,S)(8a-R,S)-Octahydroindolizin-7-yl]-1-naphthylsulfonyl-indole]
